Measurements reported in patent US20260274892A1, “MACROCYCLIC BROAD SPECTRUM ANTIBIOTICS” (RQx Pharmaceuticals, Inc., priority 2017, published 2026).

These compounds were tested on Escherichia coli ATCC 25922 (assay: Minimum inhibitory concentration (MIC), CLSI broth micro-dilution, E. coli). Details: Escherichia coli, ATCC25922, 22 h, Table 7, cation adjusted Mueller Hinton Broth + 0.002% Tween-80, 35° C.
Assay type: cell-based
Outline: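 Antibacterial potency is measured as MIC by the CLSI broth dilution method. Bacteria at OD600 0.0005 in Tween-80-supplemented cation-adjusted Mueller Hinton broth face ten twofold compound dilutions for 22 h at 35° C.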
For `Cc1nc(-c2ccc(C(C)(C)C)cc2)nc(C)c1C(=O)N[C@@H](CCN)C(=O)N(C)[C@@H]1C(=O)N[C@@H](C)C(=O)N[C@H](C(=O)NCC#N)Cc2ccc(O)c(c2)-c2cc1ccc2OCCCNC(=N)N` (racemic) [Compound 596, rac-(8S,11S,14S)-N-(cyanomethyl)-18-(3-guanidinopropoxy)-3-hydroxy-11-methyl-14-[methyl-[rac-(2S)-4-amino-2-[[2-(4-tert-butylphenyl)-4,6-dimethyl-pyrimidine-5-carbonyl]amino]butanoyl]amino]-10,13-dioxo-9,12-diazatricyclo[13.3.1.12,6]icosa-1(18),2(20),3,5,15(19),16-hexaene-8-carboxamide], the MIC was 0.5 µM.
`Cc1nc(-c2ccc(C(C)(C)C)cc2)nc(C)c1C(=O)N[C@@H](CCN)C(=O)N(C)[C@@H]1C(=O)N[C@@H](C)C(=O)N[C@H](C(=O)NCC#N)Cc2ccc(OCCCN)c(c2)-c2cc1ccc2O` (racemic) [Compound 597, rac-(8S,11S,14S)-3-(3-aminopropoxy)-N-(cyanomethyl)-18-hydroxy-11-methyl-14-[methyl-[rac-(2S)-4-amino-2-[[2-(4-tert-butylphenyl)-4,6-dimethyl-pyrimidine-5-carbonyl]amino]butanoyl]amino]-10,13-dioxo-9,12-diazatricyclo[13.3.1.12,6]icosa-1(18),2(20),3,5,15(19),16-hexaene-8-carboxamide] was tested, and the MIC was 0.26 µM.
`CCCCCOc1ccc(-c2nc(C)c(C(=O)N[C@@H](CCN)C(=O)N(C)[C@@H]3C(=O)N[C@@H](C)C(=O)N[C@H](C(=O)NCC#N)Cc4ccc(O)c(c4)-c4cc3ccc4OCCCN)c(C)n2)cc1` (racemic) [Compound 598, rac-(8S,11S,14S)-18-(3-aminopropoxy)-N-(cyanomethyl)-3-hydroxy-11-methyl-14-[methyl-[rac-(2S)-4-amino-2-[[4,6-dimethyl-2-(4-pentoxyphenyl)pyrimidine-5-carbonyl]amino]butanoyl]amino]-10,13-dioxo-9,12-diazatricyclo[13.3.1.12,6]icosa-1(18),2(20),3,5,15(19),16-hexaene-8-carboxamide] showed an MIC of 0.094 µM.
`CNCCOc1ccc2cc1-c1cc(ccc1O)C[C@@H](C(=O)NCC#N)NC(=O)[C@H](C)NC(=O)[C@H]2N(C)C(=O)[C@H](CCN)NC(=O)c1c(C)nc(-c2ccc(C(C)(C)C)cc2)nc1C` (racemic) [Compound 600, rac-(8S,11S,14S)-N-(cyanomethyl)-3-hydroxy-11-methyl-18-[2-(methylamino)ethoxy]-14-[methyl-[rac-(2S)-4-amino-2-[[2-(4-tert-butylphenyl)-4,6-dimethyl-pyrimidine-5-carbonyl]amino]butanoyl]amino]-10,13-dioxo-9,12-diazatricyclo[13.3.1.12,6]icosa-1(18),2(20),3,5,15(19),16-hexaene-8-carboxamide] showed an MIC of 0.38 µM.
`Cc1nc(-c2ccc(C(C)(C)C)cc2)nc(C)c1C(=O)N[C@@H](CCN)C(=O)N(C)[C@@H]1C(=O)N[C@@H](C)C(=O)N[C@H](C(=O)NCC#N)Cc2ccc(O)c(c2)-c2cc1ccc2OCCNCCN` (racemic) [Compound 601, rac-(8S,11S,14S)-18-[2-(2-aminoethylamino)ethoxy]-N-(cyanomethyl)-3-hydroxy-11-methyl-14-[methyl-[rac-(2S)-4-amino-2-[[2-(4-tert-butylphenyl)-4,6-dimethyl-pyrimidine-5-carbonyl]amino]butanoyl]amino]-10,13-dioxo-9,12-diazatricyclo[13.3.1.12,6]icosa-1(18),2(20),3,5,15(19),16-hexaene-8-carboxamide] gave an MIC of 0.5 µM.
`Cc1nc(-c2ccc(C(C)(C)C)cc2)nc(C)c1C(=O)N[C@@H](CCN)C(=O)N(C)[C@@H]1C(=O)N[C@@H](C)C(=O)N[C@H](C(=O)NCC#N)Cc2ccc(O)c(c2)-c2cc1ccc2OCCNCCCN` (racemic) [Compound 602, rac-(8S,11S,14S)-18-[2-(3-aminopropylamino)ethoxy]-N-(cyanomethyl)-3-hydroxy-11-methyl-14-[methyl-[rac-(2S)-4-amino-2-[[2-(4-tert-butylphenyl)-4,6-dimethyl-pyrimidine-5-carbonyl]amino]butanoyl]amino]-10,13-dioxo-9,12-diazatricyclo[13.3.1.12,6]icosa-1(18),2(20),3,5,15(19),16-hexaene-8-carboxamide] was tested, and the MIC was 0.063 µM.
Work on `Cc1nc(-c2ccc(C(C)(C)C)cc2)nc(C)c1C(=O)N[C@@H](CCN)C(=O)N(C)[C@@H]1C(=O)N[C@@H](C)C(=O)N[C@H](C(=O)NCC#N)Cc2ccc(O)c(c2)-c2cc1ccc2OC1CNC1` (racemic) [Compound 604, rac-(8S,11S,14S)-18-(azetidin-3-yloxy)-N-(cyanomethyl)-3-hydroxy-11-methyl-14-[methyl-[rac-(2S)-4-amino-2-[[2-(4-tert-butylphenyl)-4,6-dimethyl-pyrimidine-5-carbonyl]amino]butanoyl]amino]-10,13-dioxo-9,12-diazatricyclo[13.3.1.12,6]icosa-1(18),2(20),3,5,15(19),16-hexaene-8-carboxamide] yielded an MIC of 0.75 µM.
Compound `Cc1nc(-c2ccc(C(C)(C)C)cc2)nc(C)c1C(=O)N[C@@H](CCN)C(=O)N(C)[C@@H]1C(=O)N[C@@H](C)C(=O)N[C@H](C(=O)NCC#N)Cc2ccc(OC3CNC3)c(c2)-c2cc1ccc2O` (racemic) [Compound 605, rac-(8S,11S,14S)-3-(azetidin-3-yloxy)-N-(cyanomethyl)-18-hydroxy-11-methyl-14-[methyl-[rac-(2S)-4-amino-2-[[2-(4-tert-butylphenyl)-4,6-dimethyl-pyrimidine-5-carbonyl]amino]butanoyl]amino]-10,13-dioxo-9,12-diazatricyclo[13.3.1.12,6]icosa-1(18),2(20),3,5,15(19),16-hexaene-8-carboxamide] has an MIC of 0.75 µM.
`Cc1nc(-c2ccc(C(C)(C)C)cc2)nc(C)c1C(=O)N[C@@H](CCN)C(=O)N(C)[C@@H]1C(=O)N[C@@H](C)C(=O)N[C@H](C(=O)NCC#N)Cc2ccc(OC(C)CN)c(c2)-c2cc1ccc2O` (mixture of isomers) [Compound 606, rac-(8S,11S,14S)-3-(2-amino-1-methyl-ethoxy)-N-(cyanomethyl)-18-hydroxy-11-methyl-14-[methyl-[rac-(2S)-4-amino-2-[[2-(4-tert-butylphenyl)-4,6-dimethyl-pyrimidine-5-carbonyl]amino]butanoyl]amino]-10,13-dioxo-9,12-diazatricyclo[13.3.1.12,6]icosa-1(18),2(20),3,5,15(19),16-hexaene-8-carboxamide] was tested, and the MIC was 0.5 µM.
Compound `Cc1nc(-c2ccc(C(C)(C)C)cc2)nc(C)c1C(=O)N[C@@H](CCN)C(=O)N(C)[C@@H]1C(=O)N[C@@H](C)C(=O)N[C@H](C(=O)NCC#N)Cc2ccc(O)c(c2)-c2cc1ccc2OC(C)CN` (mixture of isomers) [Compound 607, rac-(8S,11S,14S)-18-(2-amino-1-methyl-ethoxy)-N-(cyanomethyl)-3-hydroxy-11-methyl-14-[methyl-[rac-(2S)-4-amino-2-[[2-(4-tert-butylphenyl)-4,6-dimethyl-pyrimidine-5-carbonyl]amino]butanoyl]amino]-10,13-dioxo-9,12-diazatricyclo[13.3.1.12,6]icosa-1(18),2(20),3,5,15(19),16-hexaene-8-carboxamide] has an MIC of 0.5 µM.
With `Cc1nc(-c2ccc(C(C)(C)C)cc2)nc(C)c1C(=O)N[C@@H](CCN)C(=O)N(C)[C@@H]1C(=O)N[C@@H](C)C(=O)N[C@H](C(=O)NCC#N)Cc2ccc(O)c(c2)-c2cc1ccc2OC1CCNCC1` (racemic) [Compound 608, rac-(8S,11S,14S)-N-(cyanomethyl)-3-hydroxy-11-methyl-14-[methyl-[rac-(2S)-4-amino-2-[[2-(4-tert-butylphenyl)-4,6-dimethyl-pyrimidine-5-carbonyl]amino]butanoyl]amino]-10,13-dioxo-18-(4-piperidyloxy)-9,12-diazatricyclo[13.3.1.12,6]icosa-1(18),2(20),3,5,15(19),16-hexaene-8-carboxamide] the MIC was 0.38 µM.
With `Cc1nc(-c2ccc(C(C)(C)C)cc2)nc(C)c1C(=O)N[C@@H](CCN)C(=O)N(C)[C@@H]1C(=O)N[C@@H](C)C(=O)N[C@H](C(=O)NCC#N)Cc2ccc(OC3CCNCC3)c(c2)-c2cc1ccc2O` (racemic) [Compound 609, rac-(8S,11S,14S)-N-(cyanomethyl)-18-hydroxy-11-methyl-14-[methyl-[rac-(2S)-4-amino-2-[[2-(4-tert-butylphenyl)-4,6-dimethyl-pyrimidine-5-carbonyl]amino]butanoyl]amino]-10,13-dioxo-3-(4-piperidyloxy)-9,12-diazatricyclo[13.3.1.12,6]icosa-1(18),2(20),3,5,15(19),16-hexaene-8-carboxamide] the MIC was 0.5 µM.
For `Cc1nc(-c2ccc(C(C)(C)C)cc2)nc(C)c1C(=O)N[C@@H](CCN)C(=O)N(C)[C@@H]1C(=O)N[C@@H](C)C(=O)N[C@H](C(=O)NCC#N)Cc2ccc(OCC(CN)CN)c(c2)-c2cc1ccc2O` (racemic) [Compound 610, rac-(8S,11S,14S)-3-[3-amino-2-(aminomethyl)propoxy]-N-(cyanomethyl)-18-hydroxy-11-methyl-14-[methyl-[rac-(2S)-4-amino-2-[[2-(4-tert-butylphenyl)-4,6-dimethyl-pyrimidine-5-carbonyl]amino]butanoyl]amino]-10,13-dioxo-9,12-diazatricyclo[13.3.1.12,6]icosa-1(18),2(20),3,5,15(19),16-hexaene-8-carboxamide], the MIC was 0.19 µM.

Same assay, conditions: Escherichia coli, ATCC25922, Table 7, cation adjusted Mueller Hinton Broth + 0.002% Tween-80, 35° C., 22 hours
Compound `CC(=N)NCCOc1ccc2cc1-c1cc(ccc1O)C[C@@H](C(=O)NCC#N)NC(=O)[C@H](C)NC(=O)[C@H]2N(C)C(=O)[C@H](CCN)NC(=O)c1c(C)nc(-c2ccc(C(C)(C)C)cc2)nc1C` (racemic) [Compound 603, rac-(8S,11S,14S)-N-(cyanomethyl)-18-[2-(ethanimidoylamino)ethoxy]-3-hydroxy-11-methyl-14-[methyl-[rac-(2S)-4-amino-2-[[2-(4-tert-butylphenyl)-4,6-dimethyl-pyrimidine-5-carbonyl]amino]butanoyl]amino]-10,13-dioxo-9,12-diazatricyclo[13.3.1.12,6]icosa-1(18),2(20),3,5,15(19),16-hexaene-8-carboxamide] has an MIC of 0.44 µM.
